Several values for one entry are separate records, joined by “and”; a condition that tells them apart may be missing. Equal entries are not always repeated.
Columns and labels:
[1] = tested on: HFL1 (human lung fibroblast) cell line; assay: MTT viability assay, inherent toxicity in non-cancerous HFL1 cells; type: cell-based; parameters: Mean % Survival: tested at 15 µM; details: for Inherent toxicity to non-cancerous HFL1 cells: 15 µM compound, 48 h, MTT, 20% reduction in viability = maximum acceptable toxicity; for Mean % Survival / % Survival (individual sample): HFL1 cells, compound alone; for Mean % Survival: mean of 8 samples; for % Survival (individual sample): single samples (trials 1-2, samples 1-4)
Protocol: The chemotherapeutic sensitive DU145 human prostate cancer cells and the multidrug resistant sub-line, DU145-TXR, were generous gifts from Dr. Evan Keller (University of Michigan, Ann Arbor, MI). The MDR, P-gp overexpressing DU145-TXR cells were maintained under positive selection pressure by supplementing complete medium with 10 nM paclitaxel (Acros Organics, NJ). […] The MDR, P-gp overexpressing A2780-ADR cell line was maintained under positive selection pressure by supplementing complete medium with 100 nM doxorubicin (Fisher Scientific, NJ). The non-cancerous HFL1 (human lung fibroblast) cell line cell line was a generous gift from Dr. Robert Harrod (Southern Methodist University, Dallas, TX) and was maintained in complete F12K media consisting of F12K with 10% fetal bovine serum, 100 U/mL penicillin, and 100 µg/mL streptomycin (Gibco). Flasks and 96 well plates that were used with the non-cancerous line HFL1 were pre-treated with 0.1 mg/ml Collagen Type 1 (Gibco) and rinsed with PBS (Fisher).
MTT assays measure the reduction of yellow, water soluble 3-(4,5-dimethylthiazol-2-yl)-2,5-diphenyltetrazolium bromide (MTT) to blue, insoluble formazan crystals by cellular reductase processes in living cells. Cells were trypsinized from monolayers and seeded in complete medium in 96 well plates. Cancerous cell lines (DU145, DU145-TXR, A2780, A2780-ADR) were seeded at 3,000 cells per well in complete RPMI medium. The non-cancerous HFL1 line was seeded at 4,000 cells per well in complete F12K medium, in collagen-treated plates (Collagen Type 1, Gibco). Cells were incubated with experimental compounds for 48 hours at 37 °C and 5% CO2 in a humidified incubator. At 48 hours, MTT was added (20 µL/well of 5 mg/mL MTT in PBS) to each well. After incubation for 4 hours, the media was removed, and the formazan crystals were dissolved in 100 µL DMSO per well. Plates containing the semi-adherent A2780 or A2780-ADR lines were spun at 1400 rpm for 3 minutes prior to aspiration of media, and the addition of DMSO. Plates were shaken for 10 minutes at 500 rpm on an Orbital shaker (LabDoctor from MidSci, St Louis, MO). The absorbance was measured at 570 nm using a Bio-Tek Cytation 5 (Bio-Tek, Winooski, VT). The measured absorbance value was correlated with the number of metabolically active cells in that well, corrected for absorbance of media. The percent of cell viability (termed ‘survival’ here) was calculated as a percentage of survival of the control condition, which refers to vehicle-treated (DMSO as vehicle) cells, or vehicle-and-chemotherapeutic-treated cells, if testing a compound’s ability to re-sensitize cells to a chemotherapeutic. Percent survival was calculated using the following equation:
% Survival=100 × absorbance of experimental cells/mean absorbance of control treated cells
For DU145-TXR, DU145, HFL1 and A2780 cells – data are the mean ± one standard deviation, 8 samples per compound, from at least two independent trials per compound. […] For A2780-ADR cells, data are the mean ± one standard deviation with 12 samples per compound, from at least two independent trials per compound.
If a P-gp inhibitor is intrinsically toxic to non-cancerous cells, it is more likely to be participating in undesirable off-target interactions. The top compounds from the screens shown above were screened for inherent toxicity using the non-cancerous HFL1 (human lung fibroblast) cell line. HFL1 cells were incubated with 15 µM compound for 48 hours, after which cell viability was assessed using MTT cell viability assays. A 20% reduction in cell viability (compared to DMSO-treated cells) was considered the maximum acceptable toxicity (see dotted line). The chemotherapeutic daunorubicin was included as a positive control for toxicity.
The top compounds from previous screens were tested against the non-cancerous HFL1 cell line.

P-gp = tested on: P-gp; parameters: method as in earlier work; details: ref [66-68]; cited from earlier work

Compound | Inherent toxicity to non-cancerous HFL1 cells [1] | Mean % Survival [1] [%] | % Survival (individual sample) [1] | P-gp Substrate? (known transport substrate of P-gp) (P-gp)
Cc1onc(-c2ccccc2)c1-c1nnc(Cn2cnc3c(oc4ccccc43)c2=O)o1 [Compound 78, Cc1onc(c1-c1nnc(Cn2cnc3c4ccccc4oc3c2=O)o1)-c1ccccc1] | either ‘non-toxic’ or ‘within acceptable limits’ of toxicity | 99.6 | 102% | 
COc1cccc(N2CCN(c3ccc4nnc(CCC(=O)Nc5ccc(F)c(F)c5)n4n3)CC2)c1 [Compound 101, COc1cccc(c1)N1CCN(CC1)c1ccc2nnc(CCC(=O)Nc3ccc(F)c(F)c3)n2n1] | either ‘non-toxic’ or ‘within acceptable limits’ of toxicity | 100.9 | 103% | 
O=C(c1nc(-c2ccc3cc[nH]c3c2)no1)N1CCN(c2nsc3ccccc23)CC1 [Compound 70, O=C(N1CCN(CC1)c1nsc2ccccc12)c1nc(no1)-c1ccc2cc[nH]c2c1] | either ‘non-toxic’ or ‘within acceptable limits’ of toxicity | 81.4 | 81% and 85% | 
O=C(c1nc(-c2ccccn2)no1)N1CCN(c2nsc3ccccc23)CC1 [Compound 124, O=C(N1CCN(CC1)c1nsc2ccccc12)c1nc(no1)-c1ccccn1] | either ‘non-toxic’ or ‘within acceptable limits’ of toxicity | 84.6 | 89% | 
Cc1onc(-c2ccccc2)c1-c1nnc(Cn2cnc3ccccc3c2=O)o1 [Compound 111, Cc1onc(c1-c1nnc(Cn2cnc3ccccc3c2=O)o1)-c1ccccc1] | either ‘non-toxic’ or ‘within acceptable limits’ of toxicity | 96.0 | 92% | 
O=C(NCc1cccc(F)c1)c1nnn2c1Sc1c(C(=O)NCc3cccc(F)c3)nnn1CC2 [Compound 122, Fc1cccc(CNC(=O)c2nnn3CCn4nnc(C(=O)NCc5cccc(F)c5)c4Sc23)c1] | either ‘non-toxic’ or ‘within acceptable limits’ of toxicity | 79.7 |  | 
COc1cc2c(cc1OC)CN(CCc1ccc(NC(=O)c3cc(OC)c(OC)cc3NC(=O)c3cnc4ccccc4c3)cc1)CC2 [Tariquidar, reference compound] |  |  |  | Yes
O=S(=O)(Cc1nc2ccccc2n1CC(O)c1ccc(Cl)cc1)c1ccccc1 (centres unmarked) [Compound 97, OC(Cn1c(CS(=O)(=O)c2ccccc2)nc2ccccc12)c1ccc(Cl)cc1] | either ‘non-toxic’ or ‘within acceptable limits’ of toxicity | 84.9 | 85% | 
Cc1ccc(-c2noc(-c3cn(Cc4ccc(NS(=O)(=O)c5ccccc5F)cc4)cn3)n2)cc1 [Compound 103, Cc1ccc(cc1)-c1noc(n1)-c1cn(Cc2ccc(NS(=O)(=O)c3ccccc3F)cc2)cn1] | either ‘non-toxic’ or ‘within acceptable limits’ of toxicity | 93.4 |  | 
O=S(=O)(CCSc1nnc(-c2ccccc2)c2ccccc12)c1ccccc1 [Compound 96, O=S(=O)(CCSc1nnc(-c2ccccc2)c2ccccc12)c1ccccc1] | either ‘non-toxic’ or ‘within acceptable limits’ of toxicity | 92.7 | 91% | 

Source: paper PMC12349723, “Computationally accelerated identification of P-glycoprotein inhibitors” (PLOS One, 2025)
